The source of these data is US6297032A, “Recombinant cephalosporin C amidohydrolase in cephalosporin biosynthesis” (Glaxo Group Limited, priority 1994, dated 2001).

Experiment [1] has as its system cephalosporin C amidohydrolase. Description: Enzyme activity assay, B965 whole cells (7ACA production). Format: biochemical, Pseudomonas vesicularis B965. As for the experimental part: (§1) Substrate buffer consists of 50 mM sodium phosphate buffer pH 7.0 containing 13.5 mg/ml cloxacillin and GL-7CA (3 mg/ml) or cephalosporin C (10 mg/ml). Cell suspensions or semi-purifed enzyme samples were incubated in substrate buffer for up to 24 hours at 37° C. At a suitable time a 100 μl aliquot of fluram reagent was then added, mixed and the sample incubated at room temperture for 1 hour. Fluram reagent consists of fluroescamine (Sigma Chemical Co) at 1 mg/ml in dry acetone. The presence of 7ACA in the reaction mix was detected after derivatisation of the free primary amine group by using fluorescence spectroscopy at an excitation wave length of 378 nm and emission detection at 498 nm in a flow injection assay system with 10% acetone in water as carrier fluid.
(§2) The enzyme reaction mix was derivatised as above a 20 μl sample applied in a mobile phase consisting of 35% acetonitrile, 0.1% trifluoroacetic acid in HPLC-grade water onto a 15 cm Hypersil ODS 5μ column at 32° C. with a flow rte of 1.5 ml/min. Detection by fluorescence spectroscopy was as above. In this system authentic 7ACA standard has a retention time of 6.7 minutes, with a minor degradation peak at
In typical experiments using these conditions B965 cells sufficient to fill a 10 μl inoculating loop produced 320 μg/ml 7ACA in 18 hours incubation GL-7ACA as substrate. […]

Experiment [2] relates to cephalosporin C amidohydrolase. The experiment can be described thus: Enzyme activity assay, partially purified amidohydrolase recovered from B965. Format: biochemical, Pseudomonas vesicularis B965. As for the experimental part:
as §1, with “Cell” for “Substrate buffer consists of 50 mM sodium phosphate buffer pH 7.0 containing 13.5 mg/ml cloxacillin and GL-7CA (3 mg/ml) or cephalosporin C (10 mg/ml). Cell”
B965 cells were cultured on TSB agar plates essentially by the method of preparation 1(b). The cells were harvested into enzyme buffer, washed and finally resuspended in 10 ml chilled enzyme buffer. Enzyme buffer is 100 mM sodium phosphate buffer (pH 7.0) containing 1 mM DTT and 1 mM benzamidine. The cells were lysed by sonication using a 650W output sonicator (model W-380, Heat System Ultrasonics Inc, 1938 New Highway, Farmingdale, N.Y. 11735, USA) on power settings 2-3, 50% cycle, for 12 , minutes . The extract was clarifed by centrifugation at 18,000 g for 15 minutes at 4° C. The supernatant was recovered, adjusted to 10 ml volume in enzyme buffer, then solid ammonium sulphate was added slowly with gentle mixing at 4° C. to 30% saturation. […]

Experiment [3] has as its system cephalosporin C amidohydrolase. Description: Cephalosporin C amidohydrolase enzyme properties, kinetic. Format: biochemical, Pseudomonas vesicularis B965. Here is the method: as §1
Further purification of the amidohydrolase was undertaken using an FPLC system (Pharmacia LKB Biotechnology, S-751 82 Uppsala, Sweden) in order to define the properties of the enzyme.
Material recovered from the 30-60% saturation ammonium sulphate precipitate was resuspended in MOPS buffer (10 mM MOPS pH8.0, 1 mM benzamidine). The solution was clarified by brief centrifugation followed by filration through a 0.2 micron filter. A 5 ml aliquot of enzyme mixture was applied to an HR5/5 MonoQ column pre-equilibrated with MOPS buffer. Amidohydrolase activity was recovered in the eluate between 2-4 after loading. This fraction was adjusted to 30% saturation in ammonium sulphate and loaded to an HR10/30 phenylsuperose column. Elution of protein was achieved using a salt gradient regime varying from 30%-0% saturation in ammonium sulphate with a running buffer consisting of 100 mM sodium phosphate pH7.0, 1 mM DTT. Amidohydrolase activity was recovered at between 18.5%-15.0% saturation of ammonium sulphate under these conditions.

For experiment [4], the system named is cephalosporin C amidohydrolase. Description: Substrate comparison, assay response by HPLC, enzyme from NM522/pVS44 cells. The format is biochemical, Pseudomonas vesicularis. As for the experimental part: as §2
(a) Assay response is given as product yield standardised to the 7ACA produced from GL-7ACA under equivalen reaction conditions. For this comparison it is assumed that products have molar extinction coefficients equivalent to 7ACA, such that the response was calculated directly from product peak area on HPLC. The standard reaction used 100 μl enzyme prepared by the procedure of preparation of 2(d) from NM522/p/VS44 cells, with 10 mg/ml substrate in overnight reaction at 27° C.
(b) Assay response obtained using 10 μl of above enzyme extract, with 3 mg/ml substrate in 2 hour reaction at 27° C. The actual response was then extrapolated to equivalent conditions to those used with the more slowly hydrolysed substrates.

Experiment [5] has as its system cephalosporin C amidohydrolase. The experiment can be described thus: Enzyme activity assay, E. coli B1113 extract after DE52 cellulose. The format is biochemical, Pseudomonas vesicularis. The note with it: extract 50. Here is the method:
as §1
E. coli B1113 was grown on TSB agar plates following the method of preparation 1(b). The confluent cell growth was processed for amidohydrolase recovery essentially following the procedure of preparation 1(d) to the cell-free extract stage.
Amidohydrolase activity was further purified by application of the cell-free extract to a DE52 cellulose column (Whatman Ltd, Maidstone, Kent ME14 2ME). The majority of proteins in the extract bind to the matrix and amidohydrolase activity is not retained. […]

Experiment [6] relates to cephalosporin C amidohydrolase. The experiment can be described thus: Enzyme activity assay, NM522/pVS44 extract after DE52 cellulose. Format: biochemical, Pseudomonas vesicularis. The note with it: 10 μl extract; 50 mg/ml cephalosporin C; 3 hour incubation at 27° C. As for the experimental part: as §1
Cephalosporin C amidohydrolase enzyme activity was recovered from NM522/pVS44 cells using procedures of preparation 1(b) and 1(c) to the cell free extract stage followed by chromatography on DE52 cellulose as described above. In a typical assay using the method of preparation 1(c), a 10 μl extract produced 12 μg/ml 7ACA from 50 mg/ml cephalosporin C in a 3 hour incubation at 27° C. This represents approximately 30-fold improvement over the level of activity obtained using B1113 strain extract aat an equivalent stage of purification.

Experiment [7] deals with Immobilised amidohydrolase. The experiment can be described thus: Immobilised amidohydrolase activity (pH stat, DMAB assay). Format: biochemical, Pseudomonas vesicularis. The note with it: for Activity μmole 7ACA/min/g dry weight immobilised enzyme / Activity μmole/min/g wet weight immobilised enzyme: 50 mg/ml substrate in water, 25° C., pH 8.0. Here is the method: E. coli strain NM522/pVS 44 was grown on TSB medium supplemented with 10 μg/ml choramphenicol and solidified with 1.5% w/v agar. Growth was for 2-4 days at 27.5° C. Cell paste was recovered by scraping from the agar surface, resuspended and washed in lysis buff (10 mM MOPS pH 8.0; 1 mM DTT; 1 mM benzamidine). About 65 g cell paste was lysed in 350 ml ice cold buffer by sonication (650W output, power setting 4, 5 passes through a continuous flow head at 35 ml/min flow, sample chilled on ice). The lysate was clarified by centrifugation (15,000 rpm, 30 min) to yield 3120 mg soluble protein. This material was passed over a 300 ml column of pre-equlibrated DE52 cellulose. Fractions eluting between 100 ml-500 ml after loading contained amidohydrolase activity in a total of 398 mg protein. The protein was concentrated using a centrifugal membrance device (Centriprep 30 concentrator, Amicon).
The concentrated extract (300 mg protein, 12.54 ml) was adjusted to 100 mM phosphate buffer pH 8.0:1 mM DTT; 1 mM benzamidine, and mixed with 3.0 g (dry weight) oxirane-linked polyacrylic matrix (Eupergit C: Rohm Pharma GmbH, D-6100 Darmstadt Germany). Immobilisation, monitored by protein removal from the liquid phase, was complete by 116 hours. About 120 mg protein became covalently linked to the support. Excess protein was removed by washing in the phosphate buffer.
Immobilised amidohydrolase activity was monitored by allowing the enzyme catalysed reaction to occur using an automated control system set to detect and maintain the reaction pH at a set point (a pH stat system). A pH monitor was set such that a fall in pH from the set point triggered a peristaltic pump to allow regulated dosing of alkali titrant.
A reaction volume of 50 ml contained 50 mg/ml substrate (GL-7ACA or Ceph C) in water maintained at 25° C. The reaction mix was adjusted to pH 8.0 using 2M NaOH as titrant before addition of about 3 g dry weight (12 g wet weight) immobilised enzyme to initate the reaction. The suspension was stirred using an overhead paddle type stirrer. Reaction progress was monitored by titrant addition rate and sampling at intervals. The samples were assayed for 7ACA by the DMAB method as in preparation 1(a). By this method the following activities were measured. (Table 8.)

Experiment [8] deals with gram-negative microorganisms. Particulars: against gram-negative microorganisms; cited from earlier work.
Where [9] appears, read: 100 μl enzyme from NM522/pVS44 cells, 10 mg/ml substrate, overnight reaction at 27° C., standardised to 7ACA produced from GL-7ACA.

With `CC(=O)OCC1=C(C(=O)O)N2C(=O)[C@@H](NC(=O)CCC[C@@H](N)C(=O)O)[C@H]2SC1` [Ceph C, cephalosporin C], the 7 ACA Produced in experiment [1] (double the volume of B965 cells, cephalosporin C as substrate, overnight incubation) turned out to be 5 µg/mL; in experiment [2] (extract 80 μl, Ceph C 50 mg/ml, 8 hr), 14.5 µg/mL; in experiment [5] (Ceph C 10 mg/ml, 4 hr), 4.5 µg/mL; in experiment [6] it was 12 µg/mL. This molecule also returned a Specific activity maximum in experiment [3] (using Ceph C substrate) of 0.141 μmol 7ACA/min/mg enzyme. Also, the “Assay response (% rate of 7ACA)” value in experiment [4] (setting [9]) was 8.0%. Moreover, the “Activity μmole 7ACA/min/g dry weight immobilised enzyme” value in experiment [7] is reported as 0.95 μmole 7ACA/min/g dry weight im. For the same molecule, the “Activity μmole/min/g wet weight immobilised enzyme” value in experiment [7] is given as 0.24 μmole/min/g wet weight immobil. The maximum conversion in experiment [7] (cephalosporin C substrate, 22 hours, immobilised enzyme) stood at 1.7%. Also, the “activity as an antibiotic” value in experiment [8] was “some activity”.

`CC(=O)OCC1=C(C(=O)O)N2C(=O)[C@@H](NC(=O)CCCC(=O)O)[C@H]2SC1` [GL-7ACA, 7-β-(4-carboxybutanamido)-cephalosporanic acid]: the 7 ACA Produced in experiment [1] (B965 cells filling a 10 μl inoculating loop, GL-7ACA as substrate, 18 hours incubation) is 320 µg/mL; in experiment [2] (extract 10 μl, GL-7ACA 2 mg/ml, 4 hr), 22 µg/mL; in experiment [5] (GL-7ACA 3 mg/ml, 3 hr) it was 102 µg/mL. In addition, the Km (in general, the concentration of substrate that gives half-maximal velocity) in experiment [3] (GL-7ACA substrate at 1.2-7.2 mM) lay within 2000 to 4000 µM. In addition, the “Assay response (% rate of 7ACA)” value in experiment [4] (10 μl enzyme extract, 3 mg/ml substrate, 2 hour reaction at 27° C., extrapolated to equivalent conditions (reference = 100)) is 100%. Also, the “Activity μmole 7ACA/min/g dry weight immobilised enzyme” value in experiment [7] is 4.7 μmole 7ACA/min/g dry weight im. Further, the “Activity μmole/min/g wet weight immobilised enzyme” value in experiment [7] was 1.2 μmole/min/g wet weight immobil. This molecule also gave a conversion achieved in experiment [7] (GL-7ACA as substrate, immobilised enzyme) of 9.0%.

Regarding `N.N.O=S(=O)(O)O` [ammonium sulphate], the “Inhibitors (inhibitory concentration)” value in experiment [3] is more than 6 % w/v.

Regarding `CC(=O)OCC1=C(C(=O)O)N2C(=O)[C@@H](NC(=O)CCCC(NC(=O)c3ccccc3)C(=O)O)[C@H]2SC1` (some centres unmarked) [benzoylcephalosporin C], the “Assay response (% rate of 7ACA)” value in experiment [4] (setting [9]) turned out to be 2.8%.

Consider `O=C(CCCC(NC(=O)c1ccccc1)C(=O)O)N[C@@H]1C(=O)N2C(C(=O)[O-])=C(C[n+]3ccccc3)CS[C@H]12` (some centres unmarked) [benzoylcephalosporin-3-pyridiniummethyl], for which, in experiment [4] (setting [9]), the “Assay response (% rate of 7ACA)” value stood at 3.5%.

With `N[C@H](CCCC(=O)N[C@@H]1C(=O)N2C(C(=O)O)=C(CO)CS[C@H]12)C(=O)O` [deacetylcephalosporin C], in experiment [4] (setting [9]), the “Assay response (% rate of 7ACA)” value came out at 9.8%.

In the case of `CC(=O)OCC1=C(C(=O)O)N2C(=O)[C@@H](NC(=O)CCC(=O)O)[C@H]2SC1` [succinyl-7ACA], in experiment [4] (setting [9]), the “Assay response (% rate of 7ACA)” value amounted to 0.8%.
